Measured values: patent publication US6316423A, “Method of treating ischemic, hypoxic and anoxic brain damage” (priority 1999, dated 2001)

Columns and labels:
[1] = molecular target: T1, Rat A1 adenosine receptor (Rattus norvegicus, UniProt P25099); assay: Affinity for A1 adenosine receptors isolated from rats; assay type: binding
T1 construct: A1 adenosine receptors isolated from rats; from tissue
T1 sequence (P25099 1-326): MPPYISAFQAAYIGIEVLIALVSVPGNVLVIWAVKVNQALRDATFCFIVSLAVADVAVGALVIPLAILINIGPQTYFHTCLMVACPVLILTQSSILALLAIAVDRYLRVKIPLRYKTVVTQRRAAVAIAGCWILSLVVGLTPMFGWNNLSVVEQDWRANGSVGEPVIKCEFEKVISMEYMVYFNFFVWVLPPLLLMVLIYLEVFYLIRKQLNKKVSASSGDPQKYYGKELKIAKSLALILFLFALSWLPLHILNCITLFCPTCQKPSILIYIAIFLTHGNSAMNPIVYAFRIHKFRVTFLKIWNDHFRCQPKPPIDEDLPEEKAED
Source text: These methods are known in the art. For example, the synthesis of these compounds can be guided by U.S. Pat. No. 5,248,770 or by Jacobson et al., Journal of Medicinal Chemistry, 28, 1341-1346 (1985).

adenosine A1 receptors = settings: cited from earlier work

SMILES | Ki [1] | antagonistic properties at adenosine A1 receptors (adenosine A1 receptors)
NCCCNC(=O)Cc1ccc(NC(=O)Cc2ccc(Nc3ncnc4c3ncn4[C@@H]3O[C@H](CO)[C@@H](O)[C@H]3O)cc2)cc1 | 1.96 ± 0.06 nM | 
NCCCCNC(=O)Cc1ccc(NC(=O)Cc2ccc(Nc3ncnc4c3ncn4[C@@H]3O[C@H](CO)[C@@H](O)[C@H]3O)cc2)cc1 | 1.91 ± 0.17 nM | 
NC(=O)N1c2ccccc2C=Cc2ccccc21 [carbamazepine] |  | marginal
Cc1ccc(C(=O)NCCNC(=O)Cc2ccc(NC(=O)Cc3ccc(Nc4ncnc5c4ncn5[C@@H]4O[C@H](CO)[C@@H](O)[C@H]4O)cc3)cc2)cc1 [compound 4] | 11.9 ± 2 nM | 
Cc1ccc(C(=O)NCCCNC(=O)Cc2ccc(NC(=O)Cc3ccc(Nc4ncnc5c4ncn5[C@@H]4O[C@H](CO)[C@@H](O)[C@H]4O)cc3)cc2)cc1 [compound 5] | 5.67 ± 0.055 nM | 
Cc1ccc(C(=O)NCCCCNC(=O)Cc2ccc(NC(=O)Cc3ccc(Nc4ncnc5c4ncn5[C@@H]4O[C@H](CO)[C@@H](O)[C@H]4O)cc3)cc2)cc1 [compound 6] | 7.95 ± 0.76 nM | 
